The results in this text go back to patent publication US20130059866A1, “NOVEL PIPERIDINO-DIHYDROTHIENOPYRIMIDINE SULFOXIDES AND THEIR USE FOR TREATING COPD AND ASTHMA” (BOEHRINGER INGELHEIM INTERNATIONAL GMBH, priority 2011, published 2013).

In series [1] the test system is conscious rats. Description: Gastrointestinal (intestinal) transit in conscious rats (barium sulfate test meal). It is filed as in vivo, rat. The note with it: all tested doses up to the 30-fold ED50 dose p.o. How it is done:
(§1) In order to evaluate whether the compounds of the present invention lead to gastrointestinal side effects the compounds of the invention have been administered to rats 30 minutes before the rats were fed with a test meal comprising barium sulfate. After that it was tested whether gastric emptying and/or gastrointestinal transit in these rats was affected by the presence of these compounds.
The effects of the compounds Example 1 and Example 2 on gastric emptying and gastrointestinal transit in conscious rats has been investigated as described below. Wistar rats of both sexes weighing 130-160 g (ages: male 7 wk, female 8 wk) were used. […] Gastric emptying as well as small intestinal propulsion are determined using a barium sulfate test meal. […]
The length of gut traversed with barium sulfate in relation to the whole length of the gut is determined by direct measurements using a ruler.
The length of gut traversed with barium sulphate (as judged by visual inspection) in relation to the whole length of the gut (from the pylorus to the rectum) is determined by direct measurements using a ruler.
Intestinal transit is calculated as the percentage movement of barium sulphate in the intestine in relation to the whole length of the gut. […]
Data are expressed as mean±standard deviation (SD). […]

A further series deals with T1, PDE4B (Homo sapiens, UniProt Q07343).
T1 construct: active site fragment comprising the amino acids 152-484
T1 sequence (Q07343 324-656): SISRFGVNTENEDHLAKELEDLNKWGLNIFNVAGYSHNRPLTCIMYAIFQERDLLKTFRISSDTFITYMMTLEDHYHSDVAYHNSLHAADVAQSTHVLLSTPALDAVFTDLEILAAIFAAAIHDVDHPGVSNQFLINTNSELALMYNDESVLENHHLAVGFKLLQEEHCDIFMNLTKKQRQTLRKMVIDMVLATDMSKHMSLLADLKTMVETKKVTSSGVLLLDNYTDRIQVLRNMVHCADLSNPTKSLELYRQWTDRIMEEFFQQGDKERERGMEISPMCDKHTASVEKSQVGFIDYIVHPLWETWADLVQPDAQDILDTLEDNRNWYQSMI
Description: PDE4B Scintillation Proximity (SPA) Assay. The conditions noted are these: PDE4B active site fragment amino acids 152-484, [3H]cAMP, 30° C., one hour; read-out: Experimentally determined IC50-value for PDE4B inhibition. The series is classed as biochemical. From the text: The IC50-values of the compounds of the invention (Example Compounds 1 and 2) and of the above-mentioned prior art compounds A to D with respect to their PDE4B-inhibiting ability have been determined with a Scintillation Proximity (SPA) Assay (GE Healthcare, No. TRKQ7090).
The Scintillation Proximity (SPA) Assay is based on the detection of the different affinities of the cyclic 3′-5′-adenosine monophosphate (cAMP, low affinity) and the linear 5′-adenosine monophosphate (AMP, high affinity) to yttrium-silicate-scintilator beads. The cAMP-specific phosphodiesterase (PDE) PDE4B cleaves the 3′-phosphodiester bond of the tritium-labelled-[^3H]cAMP to the [^3H]5′-AMP. This [^3H]5′-AMP associates with the scintillator beads because of their higher affinity and causes scintillations (light flashes) which can be measured in a Wallac Microbeta Scintillation Counter.
10 μl of a [^3H]cAMP-solution (0.05 μCi in H2O, 10-30 Ci/mmol) are added to 89 μl of a PDE4B-enzyme-solution (active site fragment comprising the amino acids 152-484; 0.15-0.18 ng) in assay buffer (50 mM Tris HCl pH 7.5; 8.3 mM MgCl2; 1.7 mM ethylene glycol tetraacetic acid (EGTA); 0.25 mg/ml bovine serum albumin (BSA)) and this mixture is incubated at 30° C. for one hour
a) without the compound to be tested (in the presence of 1 μl dimethylsulfoxide (DMSO), corresponding to 1% DMSO) and b) in the presence of the compound to be tested in a concentration of 125 μM, 25 μM, 5 μM, 1 μM, 200 nM, 40 nM, 8 nM, 1.6 nM, 0.32 nM, 0.064 nM, 0.0128 nM (dilution series in 5er-steps beginning from 125 μM until 0.0128 nM, in the presence of 1% DMSO).
After this incubation the reaction is stopped by the addition of 50 μl of bead-solution (500 mg beads/35 ml H2O, 18 mM zinc sulfate). In the following 45 minutes the beads have the opportunity to form a sediment. After that the scintillations are measured in the scintillation counter. If the tested compound is able to inhibit the enzymatic activity of the PDE4B-enzyme, less [^3H]AMP depending on the concentration of the tested compound is produced and less scintillations are measurable. […] The IC50-value stands for the compound concentration at which the PDE4B enzyme activity is inhibited to a half maximal value. Therefore the lower the IC50-value is the better is the PDE4B inhibition.
Background: SPA uses beads or plates that emit light when radiolabelled molecules are held near them.

Series [2] relates to conscious rats. The series is described as follows: Gastric emptying in conscious rats (barium sulfate test meal). The series is classed as in vivo, rat. How it is done: as §1
The effects of the compounds Example 1 and Example 2 on gastric emptying and gastrointestinal transit in conscious rats has been investigated as described below. Wistar rats of both sexes weighing 130-160 g (ages: male 7 wk, female 8 wk) were used. The animals are obtained from an approved local distributor, a minimum of four days quarantine is required before use, during which time the animals are maintained under routine animal care procedures. Groups of up to 5 animals are housed in cages in a room with controlled temperature and humidity and a light/dark cycle with the lights on from 6 a.m. to 6 p.m. The animals have access to normal rodent chow and water ad libitum. The animals are transported to the laboratory on the day of experimentation. Gastric emptying as well as small intestinal propulsion are determined using a barium sulfate test meal.
Five rats Crl:WI(Han) of each sex (n=10) were used. The animals were deprived of food 17 h prior to the experiment but allowed free access to water. The drug under investigation (drug was suspended to the concentration of 10 ml/kg body weight in 0.5% Natrosol solution) or the negative control (vehicle alone was given 10 ml/kg body weight) was administered 30 min (p.o.) before the test meal at doses calculated to be 3-fold, 10-fold or 30-fold the ED50 found in efficacy studies in the rat.
The test meal (suspension of 7.5 g barium sulfate in 10 ml salt-free water) is given orally by gavage at a dose of 2 ml/100 g body weight. Thirty minutes after the administration of the test meal the animals were killed in deep isoflurane anaesthesia by cervical dislocation. The stomach and the intestine were then exposed by laparatomy and removed.
The removed stomach was weighed, then incised, the contents removed and the empty stomach is weighed again.
The gastric content was calculated from the weight difference between the filled and empty stomach and normalized to 100 g body weight. Thus, an increase in weight difference indicated an impaired gastric emptying, whereas a decrease in weight difference indicated an enhanced gastric emptying.
Data are expressed as mean±standard deviation (SD). For each dose, comparisons were performed using an analysis of variance (ANOVA) and a post hoc Dunnett test to compare the various groups to the controls when the ANOVA was significant. p<0.05 was considered significant.

The test system of series [3] is LPS-induced neutrophil influx into bronchoalveolar lavage fluid of male Wistar rats. Description: Inhibition of LPS-induced neutrophil influx into bronchoalveolar lavage fluid (LPS-induced lung inflammation model). It is filed as in vivo. The note with it: ED50 found in efficacy studies in the rat. How it is done:
The anti-inflammatory activity of Examples 1 and 2 and of Prior art compounds A and D was assessed in an in vivo LPS-induced lung inflammation model in rats.
As a measure of the pharmacological potency of the above mentioned compounds the half-maximal effective dose (ED50) in regard to the inhibition of lipopolysaccharide-induced (LPS-induced) neutrophil influx into the bronchoalveolar lavage fluid (BALF) was determined by assessing the dose response relationship. Bacterial endotoxins (lipopolysaccharides [LPS]) are components of the outer bacterial cell membrane which play an important role in the pathogenesis of infections with gram-negative bacteria. It is known that inhalation of such aerosolized LPS induces a dose-dependent increase in neutrophils to lung tissues and airspaces in rats which may be detected by analyzing the amount of neutrophils in the bronchoalveolar lavage fluid (BALF). […]
Determination of neutrophil content of the BALF was performed using an ADVIA 120 blood hemacytometer (Bayer Diagnostics). Neutrophil data were normalised (Positive Control (=LPS treatment alone)=100%, Negative Control (no LPS treatment, administration of “vehicle only”)=0%) and expressed as percent of LPS control. The ED50 was calculated using a nonlinear fit (with the Graph Pad Prism software and a sigmoidal dose response fit). […]

For orientation: IC50 means the concentration that gives 50% inhibition. Regarding `[O-][S+]1CCc2nc(N3CCC(c4ccc(Cl)cc4)CC3)nc(NC3(CO)CCC3)c21` (single isomer, unassigned) [Example 1], the “intestinal transit vs negative control” value with conscious rats [1] is listed as “no significant differences”. Moreover, the IC50 on PDE4B worked out at 4.3 nM. For the same molecule, the “gastric emptying vs negative control” value is “no relevant differences” in the series on conscious rats [2] (3-fold ED50 dose p.o., 30 min before test meal) and “no relevant differences” in the series on conscious rats [2] (10-fold ED50 dose p.o., 30 min before test meal). Also, the “gastric emptying vs negative control (weight difference per body weight)” value with conscious rats [2] (30-fold ED50 dose p.o., 30 min before test meal) is reported as “only a very moderate enhancement”. In addition, the “ED50 as restated in the dose table of the gastrointestinal study” value in series [3] was “(ED50 = 0.31 mg/kg BW”.
In the case of `[O-][S+]1CCc2nc(N3CCC(c4ncc(Cl)cn4)CC3)nc(NC3(CO)CCC3)c21` (single isomer, unassigned) [Example 2], the “intestinal transit vs negative control” value in the series on conscious rats [1] is recorded as “no relevant differences”. In addition, at PDE4B, the IC50 turned out to be 7.2 nM. The “gastric emptying vs negative control” value in the series with conscious rats [2] (all tested doses (3-, 10-, 30-fold ED50) p.o.) was “no relevant differences”. Moreover, the “ED50 as restated in the dose table of the gastrointestinal study” value in series [3] is recorded as “(ED50 = 0.1 mg/kg BW”.
`[O-][S+]1CCc2nc(N3CCC(c4ccc(Cl)cc4)CC3)nc(NC3(CO)CC3)c21` (centres unmarked) [Prior art compound A]: at PDE4B, the IC50 turned out to be 3.3 nM.
Same read-out and setting: to `[O-][S+]1CCc2nc(N3CCC(c4c[nH]cn4)CC3)nc(NC3(CO)CC3)c21` (centres unmarked) [Prior art compound B] belongs 66 nM.
Same read-out and setting: under `[O-][S+]1CCc2nc(N3CCC(c4ccncc4)CC3)nc(NC3(CO)CC3)c21` (centres unmarked) [Prior art compound C] stands 44 nM; under `[O-][S+]1CCc2nc(N3CCC(c4cccc(Cl)c4)CC3)nc(NC3(CO)CC3)c21` (centres unmarked) [Prior art compound D], 7.3 nM.
